Key:
pKa = assay type: physicochemical; conditions: inferred from partial protonation by benzoic acid in CD3OD
[1] = Degradation of molecule C with acid in CD3OD, monitored by 1H NMR; assay type: physicochemical
Description: […] Molecule C (103.5 mg, 436 μmol) was dissolved in 0.94 mL of CD3OD and 0.5 mL (55.1 mg, 232 μmol) was transferred to a NMR tube. […] […] This reaction was too rapid to monitor the kinetics.

[2] = Degradation of molecule C under neutral conditions, monitored by 1H NMR; assay type: physicochemical
Description: Kinetics of the degradation of molecule C under neutral conditions (FIG. 2a). Molecule C (363.2 mg, 1.53 mmol) was dissolved in 3.3 mL of CD3OD, from which 0.5 mL (55.1 mg, 232 μmol) was transferred to a NMR tube. After adding an additional 0.5 mL of CD3OD, ^1H NMR spectra were recorded at room temperature every few days. After 33 days, 15% of molecule C degraded to yield N-benzylmethylamine.
This procedure was also followed but the NMR tube was added to a heat bath at 40° C.
For the kinetics in C6D6 at room temperature, a solution of molecule C (33.9 mg, 143 μmol) in 0.7 mL of C6D6 was added to a NMR tube and ^1H NMR spectra were recorded every few days for 30 days.

Solubility in D2O = assay type: physicochemical
[3] = pH=7.5, 37° C.; cited from earlier work

## CCCCCCSNCCc1ccccc1 [Molecule C, N-Benzylmethyl-hexanesulfenamide]
pKa
  pKa of the protonated sulfenamide: approximately the same pKa as benzoic acid
[1]; five equivalents of benzoic acid, 4 min
  degradation of molecule C: 51%
[1]; two molar equivalents of p-toluenesulfonic acid, within four minutes
  degradation of molecule C: > 90%
[1]; two molar equivalents of trifluoroacetic acid, within four minutes
  degradation of molecule C: > 90%
[2]; C6D6, after 30 days
  1H NMR spectrum of molecule C (stability in aprotic solvent): unchanged
[2]; C6D6, room temperature, 30 days
  degradation of molecule C: < 3%
[2]; CD3OD, 40° C., 33 days
  degradation of molecule C: 27%
[2]; CD3OD, room temperature, 33 days, no acid
  degradation of molecule C: 15%
Solubility in D2O
  solubility in D2O: not soluble

## C=CCS[S+]([O-])CC=C (stereo not shown) [allicin]
[3]
  half-life of the decomposition: approximately 2 days
